{"source": "patent US20260263429A1", "about": "“INHIBITORS OF CA 2+/CALMODULIN-DEPENDENT PROTEIN KINASE II (CAMKII) THAT DO NOT INHIBIT LONG-TERM POTENTIATION (LTP) INDUCTION AND THERAPEUTIC USES THEREOF” (The Regents of the University of Colorado, A Body Corporate, priority 2023, published 2026)", "assay_in_all_cases": "Kinase panel, residual kinase activity at 1 μM inhibitor", "format_in_all_cases": "biochemical", "key": {"[1]": {"target": "Aurora-C(h) (Homo sapiens, UniProt Q9UQB9)", "sequence (Q9UQB9 whole entry)": "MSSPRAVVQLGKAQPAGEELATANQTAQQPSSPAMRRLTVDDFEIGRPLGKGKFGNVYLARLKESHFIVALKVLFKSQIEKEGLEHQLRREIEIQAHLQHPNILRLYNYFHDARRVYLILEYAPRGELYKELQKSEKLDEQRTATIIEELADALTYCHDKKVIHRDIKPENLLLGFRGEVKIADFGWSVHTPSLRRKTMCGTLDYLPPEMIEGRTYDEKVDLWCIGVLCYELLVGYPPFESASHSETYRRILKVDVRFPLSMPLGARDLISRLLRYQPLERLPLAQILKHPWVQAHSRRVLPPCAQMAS", "method": "(§1) In this table, residual kinase activity in the presence of 1 μM of each inhibitor is illustrated as a percentage of maximal activity."}, "[2]": {"target": "CaMKI(h) (Homo sapiens, UniProt Q14012)", "sequence (Q14012 whole entry)": "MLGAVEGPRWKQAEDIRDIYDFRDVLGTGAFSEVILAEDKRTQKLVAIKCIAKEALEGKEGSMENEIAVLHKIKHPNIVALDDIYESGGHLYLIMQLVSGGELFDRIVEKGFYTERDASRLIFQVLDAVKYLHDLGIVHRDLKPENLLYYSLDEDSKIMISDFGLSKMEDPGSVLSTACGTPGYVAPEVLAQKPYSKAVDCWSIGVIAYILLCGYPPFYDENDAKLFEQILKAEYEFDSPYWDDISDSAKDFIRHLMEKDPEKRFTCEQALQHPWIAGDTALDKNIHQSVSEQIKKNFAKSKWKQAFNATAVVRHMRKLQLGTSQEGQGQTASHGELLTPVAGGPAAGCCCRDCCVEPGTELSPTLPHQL", "method": "as §1"}, "[3]": {"target": "CaMKIIγ(h) (Homo sapiens, UniProt Q13555)", "method": "as §1"}, "[4]": {"target": "CaMKIIδ(h) (Homo sapiens, UniProt Q13557)", "method": "as §1"}, "[5]": {"target": "CaMKIV(h) (Homo sapiens, UniProt Q16566)", "sequence (Q16566 whole entry)": "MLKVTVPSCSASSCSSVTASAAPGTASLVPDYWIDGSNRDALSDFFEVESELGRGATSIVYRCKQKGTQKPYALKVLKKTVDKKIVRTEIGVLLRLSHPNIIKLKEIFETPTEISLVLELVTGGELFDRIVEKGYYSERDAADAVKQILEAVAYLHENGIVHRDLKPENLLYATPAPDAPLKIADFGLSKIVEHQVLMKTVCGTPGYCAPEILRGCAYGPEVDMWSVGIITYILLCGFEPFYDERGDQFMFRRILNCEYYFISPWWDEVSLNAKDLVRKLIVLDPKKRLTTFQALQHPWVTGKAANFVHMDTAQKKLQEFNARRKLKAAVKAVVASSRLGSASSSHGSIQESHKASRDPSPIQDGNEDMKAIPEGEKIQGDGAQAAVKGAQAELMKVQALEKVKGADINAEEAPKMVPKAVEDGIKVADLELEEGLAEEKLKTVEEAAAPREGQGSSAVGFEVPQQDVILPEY", "method": "as §1"}, "[6]": {"target": "FAK(h) (Homo sapiens, UniProt Q05397)", "method": "as §1"}, "[7]": {"target": "GSK3α(h) (Homo sapiens, UniProt P49840)", "sequence (P49840 whole entry)": "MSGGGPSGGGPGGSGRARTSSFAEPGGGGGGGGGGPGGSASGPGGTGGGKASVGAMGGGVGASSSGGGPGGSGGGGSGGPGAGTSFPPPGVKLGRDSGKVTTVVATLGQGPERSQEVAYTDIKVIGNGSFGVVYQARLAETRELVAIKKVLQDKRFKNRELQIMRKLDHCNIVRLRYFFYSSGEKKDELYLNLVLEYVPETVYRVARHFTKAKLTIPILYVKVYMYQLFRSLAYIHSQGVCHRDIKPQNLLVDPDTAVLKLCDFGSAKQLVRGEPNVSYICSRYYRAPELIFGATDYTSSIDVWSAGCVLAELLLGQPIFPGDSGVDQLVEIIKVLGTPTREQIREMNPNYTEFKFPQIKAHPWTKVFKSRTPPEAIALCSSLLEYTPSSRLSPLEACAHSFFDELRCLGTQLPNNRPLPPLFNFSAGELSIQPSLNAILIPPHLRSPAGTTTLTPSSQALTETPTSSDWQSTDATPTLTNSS", "method": "as §1"}, "[8]": {"target": "GSK3β(h) (Homo sapiens, UniProt P49841)", "sequence (P49841 whole entry)": "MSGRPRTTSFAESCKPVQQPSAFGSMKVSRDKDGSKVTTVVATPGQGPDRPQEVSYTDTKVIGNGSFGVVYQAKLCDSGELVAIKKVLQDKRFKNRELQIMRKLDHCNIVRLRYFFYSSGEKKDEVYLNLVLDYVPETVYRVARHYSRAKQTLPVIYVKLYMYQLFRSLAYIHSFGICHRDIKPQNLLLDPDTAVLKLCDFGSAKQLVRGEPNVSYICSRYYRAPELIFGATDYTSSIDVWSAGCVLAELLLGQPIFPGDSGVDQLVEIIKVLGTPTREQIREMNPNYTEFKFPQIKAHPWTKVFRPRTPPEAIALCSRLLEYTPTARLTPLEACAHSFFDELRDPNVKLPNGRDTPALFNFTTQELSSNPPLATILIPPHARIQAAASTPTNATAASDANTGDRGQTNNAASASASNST", "method": "as §1"}, "[9]": {"target": "KDR(h) (Homo sapiens, UniProt P35968)", "method": "as §1"}, "[10]": {"target": "MAPK2(h) (Homo sapiens, UniProt P28482)", "sequence (P28482 whole entry)": "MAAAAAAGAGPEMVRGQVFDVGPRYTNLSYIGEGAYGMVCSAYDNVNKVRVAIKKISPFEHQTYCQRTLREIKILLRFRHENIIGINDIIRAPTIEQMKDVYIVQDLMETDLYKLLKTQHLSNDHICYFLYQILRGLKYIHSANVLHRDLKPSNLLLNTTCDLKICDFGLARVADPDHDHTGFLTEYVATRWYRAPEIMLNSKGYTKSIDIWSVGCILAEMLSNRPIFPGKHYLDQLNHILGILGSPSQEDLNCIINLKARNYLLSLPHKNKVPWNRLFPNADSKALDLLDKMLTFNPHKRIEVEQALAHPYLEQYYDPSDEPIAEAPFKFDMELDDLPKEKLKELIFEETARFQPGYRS", "method": "as §1"}, "[11]": {"target": "PDGFRβ(h) (Homo sapiens, UniProt P09619)", "sequence (P09619 33-1106)": "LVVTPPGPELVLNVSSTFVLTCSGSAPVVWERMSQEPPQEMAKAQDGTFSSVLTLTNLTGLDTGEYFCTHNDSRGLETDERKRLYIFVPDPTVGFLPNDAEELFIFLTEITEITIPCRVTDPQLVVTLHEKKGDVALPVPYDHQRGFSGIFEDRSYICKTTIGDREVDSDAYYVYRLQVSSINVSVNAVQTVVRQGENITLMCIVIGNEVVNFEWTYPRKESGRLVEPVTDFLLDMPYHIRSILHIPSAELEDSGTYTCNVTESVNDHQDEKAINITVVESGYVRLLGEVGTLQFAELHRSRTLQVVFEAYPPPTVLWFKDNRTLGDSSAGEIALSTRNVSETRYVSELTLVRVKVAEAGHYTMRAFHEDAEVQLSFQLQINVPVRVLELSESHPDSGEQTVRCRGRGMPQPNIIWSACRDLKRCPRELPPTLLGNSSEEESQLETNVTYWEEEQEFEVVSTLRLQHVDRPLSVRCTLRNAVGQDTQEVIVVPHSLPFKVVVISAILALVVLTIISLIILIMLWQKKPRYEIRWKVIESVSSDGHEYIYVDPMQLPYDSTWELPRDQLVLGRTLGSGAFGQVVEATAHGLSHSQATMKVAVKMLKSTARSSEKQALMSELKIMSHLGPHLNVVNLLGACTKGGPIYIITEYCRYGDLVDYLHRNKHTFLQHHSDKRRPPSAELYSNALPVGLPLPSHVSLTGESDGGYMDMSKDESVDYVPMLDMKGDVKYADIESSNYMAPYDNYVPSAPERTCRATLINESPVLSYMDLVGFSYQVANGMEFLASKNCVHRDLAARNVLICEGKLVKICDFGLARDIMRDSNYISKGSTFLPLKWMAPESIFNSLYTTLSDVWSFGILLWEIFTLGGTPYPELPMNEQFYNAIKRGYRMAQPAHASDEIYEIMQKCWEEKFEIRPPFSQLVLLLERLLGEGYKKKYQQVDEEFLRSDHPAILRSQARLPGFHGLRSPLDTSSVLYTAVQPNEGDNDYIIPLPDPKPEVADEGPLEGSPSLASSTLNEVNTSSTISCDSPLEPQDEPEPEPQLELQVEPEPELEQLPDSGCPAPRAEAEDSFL", "method": "as §1"}, "[12]": {"target": "PDK1(h) (Homo sapiens, UniProt O15530)", "method": "as §1"}, "[13]": {"target": "PI3 Kinase (p110a/p85a)(h) (Homo sapiens, UniProt P42336)", "method": "as §1"}, "[14]": {"target": "PKCα(h) (Homo sapiens, UniProt P17252)", "method": "as §1"}, "[15]": {"target": "ROCK-II(h) (Homo sapiens, UniProt O75116)", "method": "as §1"}, "[16]": {"target": "SAPK2a(h) (Homo sapiens, UniProt Q16539)", "sequence (Q16539 whole entry)": "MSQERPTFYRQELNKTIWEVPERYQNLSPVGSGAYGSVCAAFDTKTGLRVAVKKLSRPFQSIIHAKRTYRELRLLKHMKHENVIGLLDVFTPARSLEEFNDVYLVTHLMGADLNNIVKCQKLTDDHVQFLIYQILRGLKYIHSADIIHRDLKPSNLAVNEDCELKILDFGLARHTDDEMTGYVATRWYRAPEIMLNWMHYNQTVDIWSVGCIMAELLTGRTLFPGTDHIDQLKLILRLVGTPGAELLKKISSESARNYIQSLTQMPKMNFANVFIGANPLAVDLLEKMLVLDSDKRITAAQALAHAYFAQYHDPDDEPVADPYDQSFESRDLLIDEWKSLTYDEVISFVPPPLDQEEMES", "method": "as §1"}, "[17]": {"target": "SGK(h) (Homo sapiens, UniProt O00141)", "method": "as §1"}, "[18]": {"target": "cKit(h) (Homo sapiens, UniProt P10721)", "sequence (P10721 26-976)": "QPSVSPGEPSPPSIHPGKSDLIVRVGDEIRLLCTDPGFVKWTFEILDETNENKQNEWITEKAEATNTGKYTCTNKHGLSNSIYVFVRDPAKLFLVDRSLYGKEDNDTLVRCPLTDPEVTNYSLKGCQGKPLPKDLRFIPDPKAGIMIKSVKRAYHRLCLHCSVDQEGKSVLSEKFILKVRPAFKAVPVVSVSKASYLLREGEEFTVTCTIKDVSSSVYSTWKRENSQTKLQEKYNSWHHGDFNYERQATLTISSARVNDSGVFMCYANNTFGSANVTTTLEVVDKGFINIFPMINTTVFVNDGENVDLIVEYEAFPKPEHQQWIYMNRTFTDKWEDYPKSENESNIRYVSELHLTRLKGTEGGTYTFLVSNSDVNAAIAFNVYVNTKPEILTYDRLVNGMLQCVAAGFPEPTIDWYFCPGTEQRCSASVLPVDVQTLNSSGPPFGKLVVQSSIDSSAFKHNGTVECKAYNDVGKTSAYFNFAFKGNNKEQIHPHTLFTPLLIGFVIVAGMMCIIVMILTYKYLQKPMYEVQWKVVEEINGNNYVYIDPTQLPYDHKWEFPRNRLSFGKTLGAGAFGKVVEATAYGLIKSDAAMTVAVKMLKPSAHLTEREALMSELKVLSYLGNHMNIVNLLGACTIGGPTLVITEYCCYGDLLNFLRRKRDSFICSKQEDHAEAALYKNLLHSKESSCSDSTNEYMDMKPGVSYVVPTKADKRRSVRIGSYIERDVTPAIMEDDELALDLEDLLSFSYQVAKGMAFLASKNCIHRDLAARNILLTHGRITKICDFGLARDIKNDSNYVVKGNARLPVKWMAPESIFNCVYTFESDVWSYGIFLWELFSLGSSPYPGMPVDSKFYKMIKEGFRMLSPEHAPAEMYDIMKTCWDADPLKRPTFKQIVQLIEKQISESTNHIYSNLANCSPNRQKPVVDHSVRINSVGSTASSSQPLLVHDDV", "method": "as §1"}, "[19]": {"target": "mTOR(h) (Homo sapiens, UniProt P42345)", "method": "as §1"}}, "data": [{"smiles": "NCCNc1cccc(-c2ccnc3[nH]c4ccccc4c23)c1", "note": "[AS283]", "values": [{"measurement": "residual kinase activity, Aurora-C(h)", "setting": "[1]", "result": "63 percentage of maximal activity"}, {"measurement": "residual kinase activity, CaMKI(h)", "setting": "[2]", "result": "107 percentage of maximal activity"}, {"measurement": "residual kinase activity, CaMKIIγ(h)", "setting": "[3]", "result": "2 percentage of maximal activity"}, {"measurement": "residual kinase activity, CaMKIIδ(h)", "setting": "[4]", "result": "2 percentage of maximal activity"}, {"measurement": "residual kinase activity, CaMKIV(h)", "setting": "[5]", "result": "90 percentage of maximal activity"}, {"measurement": "residual kinase activity, FAK(h)", "setting": "[6]", "result": "68 percentage of maximal activity"}, {"measurement": "residual kinase activity, GSK3α(h)", "setting": "[7]", "result": "82 percentage of maximal activity"}, {"measurement": "residual kinase activity, GSK3β(h)", "setting": "[8]", "result": "87 percentage of maximal activity"}, {"measurement": "residual kinase activity, KDR(h)", "setting": "[9]", "result": "15 percentage of maximal activity"}, {"measurement": "residual kinase activity, MAPK2(h)", "setting": "[10]", "result": "97 percentage of maximal activity"}, {"measurement": "residual kinase activity, PDGFRβ(h)", "setting": "[11]", "result": "111 percentage of maximal activity"}, {"measurement": "residual kinase activity, PDK1(h)", "setting": "[12]", "result": "78 percentage of maximal activity"}, {"measurement": "residual kinase activity, PI3 Kinase (p110a/p85a)(h)", "setting": "[13]", "result": "100 percentage of maximal activity"}, {"measurement": "residual kinase activity, PKCα(h)", "setting": "[14]", "result": "49 percentage of maximal activity"}, {"measurement": "residual kinase activity, ROCK-II(h)", "setting": "[15]", "result": "77 percentage of maximal activity"}, {"measurement": "residual kinase activity, SAPK2a(h)", "setting": "[16]", "result": "95 percentage of maximal activity"}, {"measurement": "residual kinase activity, SGK(h)", "setting": "[17]", "result": "86 percentage of maximal activity"}, {"measurement": "residual kinase activity, cKit(h)", "setting": "[18]", "result": "50 percentage of maximal activity"}, {"measurement": "residual kinase activity, mTOR(h)", "setting": "[19]", "result": "115 percentage of maximal activity"}]}]}
